Experimental data as given in patent publication US11084826B2, “RSV antiviral pyrazolo- and triazolo-pyrimidine compounds” (Janssen Sciences Ireland Unlimited Company, priority 2015, dated 2021).

Columns and labels:
rgRSV224 virus = assay: Antiviral activity: inhibition of rgRSV224 (GFP-expressing RSV) replication in HeLa cells, GFP expression read-out; assay type: cell-based, respiratory syncytial virus (RSV); conditions: human respiratory syncytial virus, HeLa, read-out: RSV HELA pEC50, rgRSV224 virus (MOI=1) in HeLa cells, GFP read-out (converted)
Procedure: (§1) Black 384-well clear-bottom microtiter plates (Corning, Amsterdam, The Netherlands) were filled via acoustic drop ejection using the echo liquid handler (Labcyte, Sunnyvale, Calif.). 200 nL of compound stock solutions (100% DMSO) were transferred to the assay plates. 9 serial 4-fold dilutions of compound were made, creating per quadrant the same compound concentration. The assay was initiated by adding 10 μL of culture medium to each well (RPMI medium without phenol red, 10% FBS-heat inactivated, 0.04% gentamycin (50 mg/mL). All addition steps are done by using a multidrop dispenser (Thermo Scientific, Erembodegem, Belgium). Next, rgRSV224 virus (MOI=1) diluted in culture medium was added to the plates. rgRSV224 virus is an engineered virus that includes an additional GFP gene (Hallak LK, Spillmann D, Collins PL, Peeples Me. Glycosaminoglycan sulfation requirements for respiratory syncytial virus infection; Journal of virology (2000), 74(22), 10508-13) and was in-licensed from the NIH (Bethesda, Md., USA). Finally, 20 μL of a HeLa cell suspension (3,000 cells/well) were plated. Medium, virus- and mock-infected controls were included in each test. The wells contain 0.05% DMSO per volume. Cells were incubated at 37° C. in a 5% CO2 atmosphere. Three days post-virus exposure, viral replication was quantified by measuring GFP expression in the cells by an in house developed MSM laser microscope (Tibotec, Beerse, Belgium). The EC50 was defined as the 50% inhibitory concentration for GFP expression. In parallel, compounds were incubated for three days in a set of white 384-well microtiter plates (Corning) and the cytotoxicity of compounds in HeLa cells was determined by measuring the ATP content of the cells using the ATPlite kit (Perkin Elmer, Zaventem, Belgium) according to the manufacturer's instructions. The CC50 was defined as the 50% concentration for cytotoxicity.

[1] = Cytotoxicity in HeLa cells, ATP content measured with the ATPlite kit; assay type: cell-based; conditions: human, TOX HELA pCC50
Procedure: as §1

Compound | EC50 (rgRSV224 virus) | CC50 at 3 days [1] | melting point
CCc1cc(C(=O)N2CCCCC[C@H]2C)nc2cc(-c3ccc(-c4ncc(C(=O)O)s4)cc3F)nn12 (racemic) [Compound F43] | 61.7 nM | 42700 nM | 177.53 °C
C[C@@H]1CCCCCN1C(=O)c1cc(C2(C)CC2)n2nc(-c3ccc(OCC(=O)O)cc3F)cc2n1 (racemic) [Compound F48] | 437 nM | > 100000 nM | 204.93 °C
C[C@@H]1CCCCCN1C(=O)c1cc(C2(C)CC2)n2nc(-c3ccc4cc(C(=O)O)c(=O)oc4c3F)cc2n1 (racemic) [Compound F49] | 26.3 nM | 57500 nM | 218.14 °C
C[C@@H]1CCCCCN1C(=O)c1cc(C2(C)CC2)n2nc(-c3ccc4c(c3F)OCC(C(=O)O)=C4)cc2n1 (racemic) [Compound F51] | 27.5 nM | 57500 nM | 261.88 °C
C[C@@H]1CCCCCN1C(=O)c1cc(C2CCC2)n2nc(-c3ccc4cc(C(=O)O)c(=O)oc4c3F)cc2n1 (racemic) [Compound F53] | 36.3 nM | 60300 nM | 175.52 °C
CCc1cc(C(=O)N2CCc3sccc3C2C)nc2cc(-c3ccc(-c4ccc(C(=O)O)cn4)cc3F)nn12 (racemic) [Compound F60] | 45.7 nM | > 25100 nM | 270.54 °C
CCc1cc(C(=O)N2CCCCC[C@H]2C)nc2cc(-c3ccc4c(c3F)OC[C@@H](C(=O)O)C4)nn12 (racemic) [Compound F65] | 141 nM | > 100000 nM | 186.2 °C
CCc1cc(C(=O)N2CCc3sccc3[C@H]2C)nc2cc(-c3ccc4c(c3F)OCC(C(=O)O)=C4)nn12 (racemic) [Compound F66] | 7.08 nM | 15500 nM | 256.54 °C
CC1c2ccsc2CCN1C(=O)c1cc(C2(C)CC2)n2nc(-c3ccc(-c4ccc(C(=O)O)cn4)cc3F)cc2n1 (racemic) [Compound F68] | 43.7 nM | 51300 nM | 203.36 °C
CCc1cc(C(=O)N2CCCCC[C@H]2C)nc2cc(-c3ccc(C4CC=C(C(=O)O)CC4)cc3F)nn12 (mixture of isomers) [Compound F69] | 195 nM | > 25100 nM | 176.26 °C
CCc1cc(C(=O)N2CCCC3(CC=CC3)C2C)nc2cc(-c3ccc(/C=C/C(=O)O)cc3F)nn12 (racemic) [Compound M35] | 200 nM | 42700 nM | 206.72 °C
CCc1cc(C(=O)N2CCc3sccc3C2C)nc2cc(-c3cccc(/C=C/C(=O)O)c3F)nn12 (racemic) [Compound M48] | 12.9 nM | > 25100 nM | 255.5 °C
CCc1cc(C(=O)N2CC[C@@H]3CCCC[C@@H]3[C@H]2C)nc2cc(-c3ccc(/C=C/C(=O)O)cc3F)nn12 (racemic) [Compound M50] | 191 nM | 46800 nM | 184.15 °C
CCc1cc(C(=O)N2CCC3=C(CCCC3)C2C)nc2cc(-c3cccc(/C=C/C(=O)O)c3F)nn12 (racemic) [Compound M51] | 162 nM | 66100 nM | 227.14 °C
C[C@@H]1CCCCCN1C(=O)c1cc(C2(C)CC2)n2nc(-c3ccc(C4C[C@H]4C(=O)O)cc3F)cc2n1 (mixture of isomers) [Compound O10] | 28.8 nM | 45700 nM | 333.75 °C
C[C@@H]1CCCCCN1C(=O)c1cc(C2CCC2)n2nc(-c3ccc(C4C[C@H]4C(=O)O)cc3F)cc2n1 (mixture of isomers) [Compound O11] | 30.2 nM | 47900 nM | 249.19 °C
CCc1cc(C(=O)N2CCCCCN2C)nc2cc(-c3ccc(C4C[C@H]4C(=O)O)cc3F)nn12 (mixture of isomers) [Compound O12] | 174 nM | > 100000 nM | 204.71 °C
CCc1cc(C(=O)N2CCCCC[C@H]2C)nc2cc(-c3ccc([C@@H]4C[C@@H]4C(=O)O)cc3F)nn12 (racemic) [Compound O16] | 170 nM | > 100000 nM | 333.46 °C
CCc1cc(C(=O)N2CCCCC[C@H]2C)nc2nc(-c3cccs3)nn12 (racemic) [Compound S1] | 832 nM | > 100000 nM | 162 to 163 °C
CCc1cc(C(=O)N2CCCCC[C@H]2C)nc2cc(-c3ccc(N(C)c4ccc(C(=O)O)cn4)cc3F)nn12 (racemic) [Compound W20] | 355 nM | 63100 nM | 132 °C
CCc1cc(C(=O)N2CCCCCC2C)nc2cc(-c3ccc(/C=C(\C)C(=O)O)cc3F)nn12 (stereo not shown) [Compound M13] | 224 nM | > 25100 nM | 
CNc1cc(C(=O)N2CCc3ccccc3[C@H]2C)nc2cc(-c3ccc(/C=C/C(=O)O)cc3F)nn12 [Compound M14] | 24 nM | 15800 nM | 

Compound | EC50 (rgRSV224 virus) | CC50 at 3 days [1] | melting point
CCc1cc(C(=O)N2CCc3ccccc3[C@H]2C)nc2cc(-c3ccc(/C=C/C(=O)O)cc3F)nn12 [Compound M15] | 15.1 nM | > 20400 nM | 
C[C@@H]1c2ccccc2CCN1C(=O)c1cc(N2CCCC2)n2nc(-c3ccc(/C=C/C(=O)O)cc3F)cc2n1 [Compound M16] | 13.2 nM | 16600 nM | 
CCc1cc(C(=O)N2CCc3ccccc3C2C)nc2cc(-c3ccc(/C=C(\C)C(=O)O)cc3F)nn12 (stereo not shown) [Compound M17] | 63.1 nM | 17400 nM | 
CCc1cc(C(=O)N2CCCc3ccccc3C2C)nc2cc(-c3ccc(/C=C/C(=O)O)cc3F)nn12 (stereo not shown) [Compound M18] | 77.6 nM | > 25100 nM | 
C[C@@H]1c2ccccc2CCN1C(=O)c1cc(C2CC2)n2nc(-c3cccc(/C=C/C(=O)O)c3F)cc2n1 [Compound M27] | 11.7 nM |  | 202.04 °C
C[C@@H]1CCCCCN1C(=O)c1cc(C2CC2)n2nc(-c3cccc(/C=C/C(=O)O)c3F)cc2n1 [Compound M28] | 93.3 nM | 17800 nM | 
CCc1cc(C(=O)N2CCCCC[C@H]2C)nc2cc(-c3ccc(/C=C/C(=O)O)c(OC)c3F)nn12 [Compound M32] | 178 nM | 66100 nM | 
C[C@@H]1CCCCCN1C(=O)c1cc(C2(C)COC2)n2nc(-c3cccc(/C=C/C(=O)O)c3F)cc2n1 [Compound M33] | 102 nM | > 100000 nM | 
CCc1cc(C(=O)N2CCCCCC2C)nc2cc(-c3ccc(C4CC4C(=O)O)cc3F)nn12 (stereo not shown) [Compound O1] | 123 nM | > 25100 nM | 
C[C@@H]1CCCCCN1C(=O)c1cc(C2CC2)n2nc(-c3cccc([C@H]4C[C@@H]4C(=O)O)c3F)cc2n1 [Compound O6] | 148 nM | 97700 nM | 
CCc1cc(C(=O)N2CCCCC[C@H]2C)nc2cc(-c3ccc(N4CC(C(=O)O)C4)cc3F)nn12 [Compound W1] | 64.6 nM | > 25100 nM | 
CCc1cc(C(=O)N2CCCCC[C@H]2C)nc2cc(-c3ccc(N4CCC[C@@H](C(=O)O)C4)cc3F)nn12 [Compound W4] | 105 nM | 89100 nM | 
CCc1cc(C(=O)N2CCCCC[C@H]2C)nc2cc(-c3ccc(N4CCC[C@H](C(=O)O)C4)cc3F)nn12 [Compound W5] | 89.1 nM | 95500 nM | 
CCc1cc(C(=O)N2CCCCC[C@H]2C)nc2cc(-c3ccc(NC4(C(=O)O)CC4)cc3F)nn12 [Compound W16] | 269 nM | > 100000 nM | 
CCc1cc(C(=O)N2CCCCC[C@H]2C)nc2cc(-c3ccc(N(C)CC(=O)O)cc3F)nn12 [Compound W19] | 263 nM | > 100000 nM | 
CCc1cc(C(=O)N2CCCCC[C@H]2C)nc2cc(-c3ccc(N(C)c4cc(C(=O)O)nn4C)cc3F)nn12 [Compound W21] | 1020 nM | 21900 nM | 
CCc1cc(C(=O)N2CCCCC[C@H]2C)nc2cc(-c3ccc(-n4cnc(C(=O)O)c4)cc3F)nn12 [Compound W29] | 363 nM | > 100000 nM | 
C[C@@H]1CCCCCN1C(=O)c1cc(C2(C)CC2)n2nc(-c3ccc(N4CC[C@H](C(=O)O)C4)cc3F)cc2n1 [Compound W30] | 17.4 nM | 50100 nM | 
C[C@@H]1CCCCCN1C(=O)c1cc(C2CCC2)n2nc(-c3ccc(N4CC[C@H](C(=O)O)C4)cc3F)cc2n1 [Compound W31] | 12.6 nM | 49000 nM | 
C[C@@H]1c2ccsc2CCN1C(=O)c1cc(C2(C)CC2)n2nc(-c3ccc(N4CC[C@H](C(=O)O)C4)cc3F)cc2n1 [Compound W44] | 8.71 nM | 49000 nM | 
CCc1cc(C(=O)N2CCCCC[C@H]2C)nc2cc(-c3ccc(-c4cc(=O)[nH]o4)cc3F)nn12 [Compound X1] | 93.3 nM | > 25100 nM | 
